According to patent US4468511A, “C-20- And C-23-Modified macrolide derivatives” (Eli Lilly and Company, priority 1983, dated 1984):
≈ marks a conversion by molar mass, not a printed value. Where two headings read alike, the source gives them in different places.

Key:
Mycoplasma synoviae = experiment: MIC, conventional broth-dilution microtiter test; type: cell-based; settings: Mycoplasmopsis synoviae; broth-dilution microtiter; Mycoplasma synoviae; read-out: MIC
In short: (§1)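 Agar plates containing graded compound levels gave the Klebsiella value. Graded broth dilutions in microtiter plates gave the Pasteurella and Mycoplasma values.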

[1] = test system: Pasteurella multocida 22A; experiment: MIC, conventional broth-dilution microtiter test; type: cell-based; settings: broth-dilution microtiter; Pasteurella multocida 22A; read-out: MIC
In short: (§2)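 MICs for the two Pasteurella strains and the Mycoplasma strain were read from a broth-dilution microtiter test. The Klebsiella strain was tested on agar instead.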

Streptococcus sp. 80 = experiment: MIC, conventional broth-dilution microtiter test; type: cell-based
Experimental: (§3) Certain of the derivatives are active against some gram-negative bacteria, such as Pasteurella species. The MIC's in Table II were determined by standard agar-dilution assays. The MIC's in Table III were obtained using a conventional broth-dilution microtiter test.

[2] = test system: Pasteurella multocida 40G; experiment: MIC, conventional broth-dilution microtiter test; type: cell-based; settings: broth-dilution microtiter; Pasteurella multocida 40G; read-out: MIC
In short: as §2

[3] = test system: Mycoplasma gallisepticum 41313; experiment: MIC, conventional broth-dilution microtiter test; type: cell-based; settings: Mycoplasmoides gallisepticum
In short: as §2

[4] = test system: Pasteurella multocida 60A; experiment: MIC, conventional broth-dilution microtiter test; type: cell-based; settings: broth-dilution microtiter; Pasteurella multocida 60A, Avian isolate; read-out: MIC
In short: as §2

[5] = test system: Pasteurella multocida 68C; experiment: MIC, conventional broth-dilution microtiter test; type: cell-based
In short: as §2

[6] = test system: Pasteurella hemolytica 41D; experiment: MIC, conventional broth-dilution microtiter test; type: cell-based; settings: broth-dilution microtiter; Pasteurella hemolytica 41D; read-out: MIC
In short: as §2

Mycoplasma gallisepticum = experiment: MIC, conventional broth-dilution microtiter test; type: cell-based; settings: Mycoplasmoides gallisepticum
In short: as §2

Mycoplasma hyorhinis = experiment: MIC, conventional broth-dilution microtiter test; type: cell-based; settings: broth-dilution microtiter; Mycoplasma hyorhinis; read-out: MIC
In short: as §1

[7] = test system: Pasteurella multocida 17E; experiment: MIC, conventional broth-dilution microtiter test; type: cell-based; settings: broth-dilution microtiter; Pasteurella multocida 17E, Bovine isolate; read-out: MIC
In short: as §2

[8] = test system: Pasteurella hemolytica 23C; experiment: MIC, conventional broth-dilution microtiter test; type: cell-based; settings: broth-dilution microtiter; Pasteurella hemolytica 23C; read-out: MIC
In short: as §2

[9] = test system: Pasteurella hemolytica 22C; experiment: MIC, conventional broth-dilution microtiter test; type: cell-based; settings: broth-dilution microtiter; Pasteurella hemolytica 22C; read-out: MIC
In short: as §2

[10] = test system: Mycoplasma gallisepticum 34159; experiment: MIC, conventional broth-dilution microtiter test; type: cell-based; settings: Mycoplasmoides gallisepticum
In short: as §2

Staphylococcus aureus = experiment: MIC, conventional broth-dilution microtiter test; type: cell-based; settings: broth-dilution microtiter, read-out: MIC
Experimental: as §3

[11] = test system: Streptococcus pyogenes C203; experiment: Protection of mice experimentally infected with S. pyogenes C203; type: in vivo; settings: mg/kg × 2, doses given 1 and 4 hours postinfection
Experimental: Some of the derivatives of this invention have shown in vivo antimicrobial activity against experimentally-induced infections in laboratory animals. When two doses of test compound were administered to mice experimentally infected with S. pyogenes C203, the activity observed was measured as an ED50 value [effective dose in mg/kg to protect 50% of the test animals: see Warren Wick, et al., J. Bacteriol. 81, 233-235 (1961)].

[12] = test system: Streptococcus pyogenes C203; experiment: MIC, standard agar-dilution assay; type: cell-based
Experimental: as §3

[13] = test system: Streptococcus pyogenes 9960; experiment: MIC, standard agar-dilution assay; type: cell-based; settings: agar-dilution, Streptococcus 9960, read-out: MIC
Experimental: as §3

[14] = test system: Streptococcus pneumoniae Park I; experiment: MIC, standard agar-dilution assay; type: cell-based
Experimental: as §3

[15] = test system: Staphylococcus aureus X1.1; experiment: MIC, standard agar-dilution assay; type: cell-based; settings: Staphylococcus aureus, X1.1
In short: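 A standard agar-dilution assay was used to test compounds against the Staphylococcus aureus isolate X1.1. Bacterial growth on agar with different compound concentrations was assessed, and the minimum inhibitory concentration was recorded in ug/mL.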

[16] = test system: Streptococcus Group D X66; experiment: MIC, standard agar-dilution assay; type: cell-based
Experimental: as §3

[17] = test system: Staphylococcus aureus V41; experiment: MIC, standard agar-dilution assay; type: cell-based
Experimental: as §3

Escherichia coli EC14 = experiment: MIC, standard agar-dilution assay; type: cell-based; settings: Escherichia coli, EC14
Experimental: as §3

[18] = test system: Klebsiella pneumoniae KAE; experiment: MIC, standard agar-dilution assay; type: cell-based; settings: agar-dilution; Klebsiella pneumoniae KAE; read-out: MIC
In short: as §2

[19] = test system: Klebsiella pneumoniae X26; experiment: MIC, standard agar-dilution assay; type: cell-based
In short: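 Method depends on organism. Klebsiella pneumoniae was assayed on agar. Pasteurella spp. and Mycoplasma gallisepticum were assayed in broth microtiter dilution.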

Escherichia coli TEM = experiment: MIC, standard agar-dilution assay; type: cell-based; settings: Escherichia coli
In short: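 Antibacterial activity toward the gram-negative organism Escherichia coli was assessed by conventional agar dilution. The MIC, reported in ug/mL, is the minimum compound concentration on agar that prevents growth.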

[20] = test system: Haemophilus influenzae C.L.; experiment: MIC, standard agar-dilution assay; type: cell-based; settings: Haemophilus influenzae
Experimental: (§4) The MIC's in Table II were determined by standard agar-dilution assays. The MIC's in Table III were obtained using a conventional broth-dilution microtiter test.

[21] = test system: Staphylococcus epidermidis EPI2; experiment: MIC, standard agar-dilution assay; type: cell-based
Experimental: as §4

[22] = test system: Haemophilus influenzae 76; experiment: MIC, standard agar-dilution assay; type: cell-based
Experimental: as §4

[23] = test system: Staphylococcus aureus X400; experiment: MIC, standard agar-dilution assay; type: cell-based; settings: Staphylococcus aureus, X400
Experimental: as §4

[24] = test system: Staphylococcus aureus S13E; experiment: microbe, parasite or virus in culture; type: cell-based
Experimental: as §4

[25] = test system: Staphylococcus epidermidis EPI1; experiment: microbe, parasite or virus in culture; type: cell-based; settings: Staphylococcus epidermidis, EPI1
Experimental: as §4

Pasteurella multocida = experiment: Pasteurella infection in one-day old chicks; type: in vivo; settings: subcutaneous, 30 mg/kg × 2, 1 and 4 hours post-challenge
Experimental: Certain of the formula 1 compounds of this invention have also shown in vivo activity against infections induced by gram-negative bacteria. Table V summarizes the results of tests in which illustrative compounds were evaluated against a Pasteurella infection in one-day old chicks. The compounds were administered parenterally after challenge of the chicks with Pasteurella multocida (0.1 ml of a 10^-4 dilution of a twenty-hour tryptose broth culture of an avian P. multocida given subcutaneously). In these tests, unless indicated otherwise, all non-medicated infected chicks died within 24 hours of Pasteurella challenge. In the tests summarized in Table V, the compounds were administered by subcutaneous injection at a dosage of 30 mg/kg, 1 and 4 hours post-challenge of the chicks with P. multocida.

[26] = C203, mice, oral, read-out: ED50 Oral
[27] = C203, sc, mice, subcutaneous, read-out: ED50 Subcutaneous

Structure (SMILES): CCC1OC(=O)CC(O)C(C)C(OC2OC(C)C(O)C(N(C)C)C2O)C(CCNCc2ccccc2)CC(C)C(=O)C=CC(C)=CC1CO (centres unmarked) [Compound 4, 20-N-Benzylamino-20-deoxy-20-dihydro-OMT]
- MIC (Mycoplasma synoviae): 12.5 µg/mL (≈ 18.1 µM)
- MIC [1]: 12.5 µg/mL (≈ 18.1 µM)
- MIC (Streptococcus sp. 80; broth-dilution microtiter, Streptococcus sp. 80, read-out: MIC): 6.25 µg/mL (≈ 9.07 µM)
- MIC [2]: 6.25 µg/mL (≈ 9.07 µM)
- MIC ([3]; broth-dilution microtiter, Mycoplasma gallisepticum 41313, Resistant strain, read-out: MIC): 50 µg/mL (≈ 72.6 µM)
- MIC [4]: 3.12 µg/mL (≈ 4.53 µM)
- MIC ([5]; broth-dilution microtiter, Pasteurella multocida 68C, read-out: MIC): 3.12 µg/mL (≈ 4.53 µM)
- MIC [6]: 6.25 µg/mL (≈ 9.07 µM)
- MIC (Mycoplasma gallisepticum; broth-dilution microtiter, Mycoplasma gallisepticum, read-out: MIC): 3.12 µg/mL (≈ 4.53 µM)
- MIC (Mycoplasma hyorhinis): 50 µg/mL (≈ 72.6 µM)
- MIC [7]: 3.12 µg/mL (≈ 4.53 µM)
- MIC [8]: 6.25 µg/mL (≈ 9.07 µM)
- MIC [9]: 6.25 µg/mL (≈ 9.07 µM)
- MIC ([10]; broth-dilution microtiter, Mycoplasma gallisepticum 34159, Resistant strain, read-out: MIC): 50 µg/mL (≈ 72.6 µM)
- MIC (Staphylococcus aureus): 12.5 µg/mL (≈ 18.1 µM)
- ED50 [11, 26]: > 100 mg/kg
- ED50 [11, 27]: 16.1 mg/kg
- MIC ([12]; agar-dilution, Streptococcus pyogenes C203, read-out: MIC): 4 µg/mL (≈ 5.81 µM)
- MIC [13]: 32 µg/mL (≈ 46.5 µM)
- MIC ([14]; Streptococcus pneumoniae): 2 µg/mL (≈ 2.9 µM)
- MIC [15]: 8 µg/mL (≈ 11.6 µM)
- MIC [16]: 16 µg/mL (≈ 23.2 µM)
- MIC ([17]; agar-dilution, Staphylococcus aureus V41, Penicillin-resistant strain, read-out: MIC): 16 µg/mL (≈ 23.2 µM)
- MIC (Escherichia coli EC14): 128 µg/mL (≈ 186 µM)
- MIC [18]: > 128 µg/mL
- MIC ([19]; Klebsiella pneumoniae, X26): 8 µg/mL (≈ 11.6 µM)
- MIC (Escherichia coli TEM): 8 µg/mL (≈ 11.6 µM)
- MIC [20]: 2 µg/mL (≈ 2.9 µM)
- MIC ([21]; Staphylococcus epidermidis, EPI2): 32 µg/mL (≈ 46.5 µM)
- MIC ([22]; agar-dilution, Haemophilus influenzae 76, Ampicillin-resistant strain, read-out: MIC): 2 µg/mL (≈ 2.9 µM)
- MIC [23]: 32 µg/mL (≈ 46.5 µM)
- MIC [24]: 8 µg/mL (≈ 11.6 µM)
- MIC [25]: 4 µg/mL (≈ 5.81 µM)
- Number of Deaths/Number Treated (Pasteurella multocida): 1/10

Structure (SMILES): CCC1OC(=O)CC(O)C(C)C(OC2OC(C)C(O)C(N(C)C)C2O)C(CCNCCc2ccccc2)CC(C)C(=O)C=CC(C)=CC1CO (centres unmarked) [Compound 5, 20-N-Phenethylamino-20-deoxy-20-dihydro-OMT]
- MIC (Mycoplasma synoviae): 3.12 µg/mL (≈ 4.44 µM)
- MIC [1]: 6.25 µg/mL (≈ 8.89 µM)
- MIC (Streptococcus sp. 80; Streptococcus, SP.80): 1.56 µg/mL (≈ 2.22 µM)
- MIC [2]: 6.25 µg/mL (≈ 8.89 µM)
- MIC [3]; 41313: 50 µg/mL (≈ 71.1 µM)
- MIC [4]: 3.12 µg/mL (≈ 4.44 µM)
- MIC ([5]; Pasteurella multocida, 68C): 1.56 µg/mL (≈ 2.22 µM)
- MIC [6]: 3.12 µg/mL (≈ 4.44 µM)
- MIC (Mycoplasma gallisepticum): 1.56 µg/mL (≈ 2.22 µM)
- MIC (Mycoplasma hyorhinis): > 50 µg/mL
- MIC [7]: 3.12 µg/mL (≈ 4.44 µM)
- MIC [8]: 3.12 µg/mL (≈ 4.44 µM)
- MIC [9]: 6.25 µg/mL (≈ 8.89 µM)
- MIC [10]; 34159: 50 µg/mL (≈ 71.1 µM)
- MIC (Staphylococcus aureus): 6.25 µg/mL (≈ 8.89 µM)
- ED50 [11, 26]: > 100 mg/kg
- ED50 [11, 27]: 7.2 mg/kg
- MIC ([12]; Streptococcus pyogenes, C203): 2 µg/mL (≈ 2.85 µM)
- MIC [13]: 16 µg/mL (≈ 22.8 µM)
- MIC ([14]; agar-dilution, Streptococcus pneumoniae Park I, read-out: MIC): 1 µg/mL (≈ 1.42 µM)
- MIC [15]: 4 µg/mL (≈ 5.69 µM)
- MIC [16]: 8 µg/mL (≈ 11.4 µM)
- MIC ([17]; Staphylococcus aureus, V41): 8 µg/mL (≈ 11.4 µM)
- MIC (Escherichia coli EC14): 64 µg/mL (≈ 91 µM)
- MIC [18]: > 128 µg/mL
- MIC ([19]; agar-dilution, Klebsiella pneumoniae X26, read-out: MIC): 4 µg/mL (≈ 5.69 µM)
- MIC (Escherichia coli TEM): 8 µg/mL (≈ 11.4 µM)
- MIC [20]: 8 µg/mL (≈ 11.4 µM)
- MIC ([21]; agar-dilution, Staphylococcus epidermidis EPI2, read-out: MIC): 16 µg/mL (≈ 22.8 µM)
- MIC ([22]; Haemophilus influenzae, 76): 8 µg/mL (≈ 11.4 µM)
- MIC [23]: 16 µg/mL (≈ 22.8 µM)
- MIC [24]: 8 µg/mL (≈ 11.4 µM)
- MIC [25]: 4 µg/mL (≈ 5.69 µM)
- Number of Deaths/Number Treated (Pasteurella multocida): 1/10
